Data from PubChem BioAssay (NCI).
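Abbreviation: GI50, concentration required for 50% inhibition of growth. TGI: concentration producing complete growth inhibition.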

Key:
Experiment in all cases: inhibition of tumour cell growth, NCI panel, 384-well format
[1] = system: UACC-257 melanoma
[2] = system: LOX IMVI melanoma
[3] = system: OVCAR-5 ovarian
[4] = system: MDA-MB-435 melanoma
[5] = system: 786-0 renal
[6] = system: BT-549 breast
[7] = system: NCI-H226 lung
[8] = system: IGROV1 ovarian
[9] = system: MCF7 breast
[10] = system: MALME-3M melanoma
[11] = system: SW-620 colon
[12] = system: ACHN renal
[13] = system: RXF 393 renal
[14] = system: OVCAR-3 ovarian
[15] = system: HOP-92 NSCLC
[16] = system: SK-OV-3 ovarian
[17] = system: HL-60(TB) leukemia
[18] = system: K-562 leukemia
[19] = system: SF-539 CNS
[20] = system: PC-3 prostate
[21] = system: SF-295 CNS
[22] = system: A549 NSCLC
[23] = system: KM12 colon
[24] = system: DU-145 prostate
[25] = system: SNB-19 CNS
[26] = system: OVCAR-4 ovarian
[27] = system: UACC-62 melanoma

Cc1sc2c(c1C)C(c1ccc(Cl)cc1)=N[C@@H](CC(=O)Nc1ccc(OCCOCCOCCOCCNc3cccc4c3C(=O)N(C3CCC(=O)NC3=O)C4=O)cc1)c1nnc(C)n1-2 (some centres undefined)
GI50 [1]: 179 nM | TGI [1]: 28200 nM | GI50 [2]: 68.4 nM | TGI [2]: 203 nM | GI50 [3]: 42.8 nM | TGI [3]: 1470 nM | GI50 [4]: 31.6 nM | TGI [4]: 166 nM | GI50 [5]: 44.4 nM | TGI [5]: 810 nM | GI50 [6]: < 10 nM | TGI [6]: < 10 nM | GI50 [7]: 31.5 nM | TGI [7]: 131 nM | GI50 [8]: 26.5 nM | TGI [8]: 123 nM | GI50 [9]: < 10 nM | TGI [9]: 40.3 nM | GI50 [10]: 133 nM | TGI [10]: 326 nM | GI50 [11]: 33.5 nM | TGI [11]: > 100000 nM | GI50 [12]: 534 nM | TGI [12]: > 100000 nM | GI50 [13]: 34.9 nM | TGI [13]: 96.2 nM | GI50 [14]: 69.1 nM | TGI [14]: 431 nM | GI50 [15]: 25.3 nM | TGI [15]: 291 nM | GI50 [16]: 76.5 nM | TGI [16]: 228 nM | GI50 [17]: < 10 nM | TGI [17]: < 10 nM | GI50 [18]: 54 nM | TGI [18]: 87100 nM | GI50 [19]: 90.4 nM | TGI [19]: 1120 nM | GI50 [20]: 15.3 nM | TGI [20]: > 100000 nM | GI50 [21]: 131 nM | TGI [21]: 550 nM | GI50 [22]: 36.1 nM | TGI [22]: > 100000 nM | GI50 [23]: 37.4 nM | TGI [23]: > 100000 nM | GI50 [24]: 624 nM | TGI [24]: 16100 nM | GI50 [25]: 51.6 nM | TGI [25]: > 100000 nM | GI50 [26]: 15.2 nM | TGI [26]: 34.1 nM | GI50 [27]: 34.7 nM | TGI [27]: 162 nM
